The test system of data set [1] is eIF2.GTP.Met-tRNAi ternary complex. Briefly: Ternary complex assay: dual luciferase F-luc/R-luc ratio in KLN-tTA/pBISA-DL(ATF-4) cells (HTS screen, 96-well hit confirmation, dose response). Type of data set: cell-based, mouse. The settings on record: for Ternary Complex Activity: Maximum effect (Emax, fold over control) / Cmax / fold induction at 3 µM / fold induction at 10 µM: cell line not stated; for Cmax: read-out: Ternary Complex Activity: Maximum effective dose Cmax; for fold induction at 3 µM / fold induction at 10 µM: Mus musculus; for Activity 2.5 uM: compound at 2.5 uM; for Activity 2.5 uM / Activity 10 uM: confirmed hits (Table 5); for Activity 10 uM: compound at 10 uM; for Effect on firefly/renilla luciferase ratio: KLN-tTA/pBISA-DL(ATF-4) cells. From the text:
For assay development, a bi-directional plasmid was designed in which a common promoter/enhancer complex drives the transcription of firefly luciferase (F-luc) ORF fused to the 5′ untranslated region (UTR) of ATF-4, and of the renilla luciferase (R-luc) ORF fused to a 90-nucleotide 5′ UTR derived from the plasmid (FIG. 6A). Because the tetracycline-regulated transactivator ((tTA), required for driving transcription from this vector) is not normally expressed in the mammalian cells, stable KLN cancer cells were constructed that expressed tTA (KLN-tTA).
The KLN-tTA colonies that drove expression of reporter genes from pBISA-DL plasmid were selected by transient transfection and dual luciferase assay. One of these KLN-tTA cell lines was transfected with the pBISA-DL^(ATF-4) expression vector, stable colonies were selected by dual luciferase assay and expanded. To determine if reduced availability of the eIF2.GTP.Met-tRNAi ternary complex increased the translation of firefly luciferase and decreased translation of renilla luciferase, selected KLN-tTA/pBISA-DL^(ATF-4) colonies were treated with thapsigargin (TG) or tunicamycin (TU), two agents known to cause phosphorylation of eIF2α.
This assay was then adapted for high throughput screening in 96 and 384 well plates. This was done by evaluating the cell density, length of exposure to compounds, DMSO tolerance and optimum firefly and renilla substrate. We then challenged these cells with thapsigargin or DMSO. […] Cell-based assays usually have higher variation than homogeneous in vitro assays due to position effect in the plate, and other variables associated with handling of cells and the plates.
Screening was conducted in 384 well white opaque plates (Nalge Nunc), 100 μl volume RPMI+10% fetal bovine serum. Cells were plated at the sub-confluent density of 10,000 cells/well, and allowed to attach for a period of 16-18 hours at 37° C., 5% CO2. Compounds were added as 1 μl of a 1 mM DMSO stock solution for a final screening concentration of […] using low-volume tips for transfer (Molecular Bioproducts). Cells were then incubated in the presence of compound for an additional sixteen hours, again at 37° C., 5% CO2. Following incubation 70 μl of the culture medium was removed from each well to allow for reagent addition and plates were allowed to equilibrate to room temperature for thirty minutes. Firefly luciferase reporter activity was then read by the addition of thirty microliters of Dual Glo Luciferase reagent (Promega), followed by one hour incubation at room temperature to allow for adequate signal buildup. Luminescence counting was conducted on a Microbeta Trilux using a 1 second read time. Renilla luciferase reporter activity was measured following addition of 30 μl Stop and Glo Luciferase reagent (Promega) and incubation identical to the one carried out for the firefly luciferase one.
Compound scores were interpreted as firefly luciferase activity divided by renilla luciferase activity, normalized to the plate's DMSO control. […] All data analysis was conducted using the BioAssay HTS software package (CambridgeSoft).
102,709 compounds in the NCI Open Chemical Repository were then screened using this HTS assay. […] Initial hits were confirmed by repeating the same dual luciferase assay in 96 well plates. Briefly, 20,000 cells/well were plated in triplicate for each concentration (10, 5 and 2.5 μM) of the compounds.

In data set [2] the test system is CRL-2351 human breast cancer cells. Briefly: Cell proliferation SRB assay, CRL-2351. Type of data set: cell-based. The conditions noted are these: CRL-2351 human breast cancer cells; read-out: Growth Inhibition IC50 (μm). The procedure: Reduced availability of the ternary complex causes inhibition of translation initiation and thereby of cell proliferation. […] The effects of N,N′-diarylureas on the proliferation KLN mouse squamous cell carcinoma, CRL-2351 human breast, CRL-2813 human melanoma, A549 human lung and PC-3 human prostate cancer cell lines were tested.
Cell Growth Assay: Cell Growth was Measured by the SRB Assay.
A general note: In SRB staining, fixed cells bind dye roughly in proportion to their protein.

Consider `Cc1ccc(N(C)C(=O)Nc2cc(C(F)(F)F)cc(C(F)(F)F)c2)cc1O` [BLS13], for which, in data set [1], the “Ternary Complex Activity: Maximum effect (Emax, fold over control)” value was found to be 8.5 fold over control and the Cmax is 80 µM.

For `COc1cc(N(C)C(=O)Nc2cc(C(F)(F)F)cc(C(F)(F)F)c2)ccc1C` [BLS14], the “Ternary Complex Activity: Maximum effect (Emax, fold over control)” value in data set [1] was “Inactive”.

For `CN(C(=O)Nc1cc(C(F)(F)F)cc(C(F)(F)F)c1)c1cc(C(F)(F)F)cc(C(F)(F)F)c1` [BLS17], in data set [1], the “Ternary Complex Activity: Maximum effect (Emax, fold over control)” value was 13 fold over control and the Cmax was determined as 10 µM.

Broadly, the fold induction is the signal under treatment as a multiple of the control signal. The term IC50 denotes the concentration that gives 50% inhibition. For the compound `FC(F)(F)c1cc(NC(=S)Nc2ccc(Cl)c(C(F)(F)F)c2)ccc1Cl` [Compound 1778], in data set [1], the fold induction at 3 µM came to 5 and the fold induction at 10 µM was found to be 8. In data set [2], the IC50 came out at 0.4 µM.

`FC(F)(F)c1ccc(NC(=S)Nc2ccc(Cl)c(Cl)c2)cc1` [Compound 1797]: in data set [1], the fold induction at 3 µM is 1 and the fold induction at 10 µM is 1. Further, the IC50 in data set [2] was 1.2 µM.

Take `FC(F)(F)c1cc(NC(=S)Nc2ccc(Cl)c(Cl)c2)cc(C(F)(F)F)c1` [Compound 1798]: in data set [1], the fold induction at 3 µM was found to be 3 and the fold induction at 10 µM came out at 5. Besides, the IC50 in data set [2] came out at 0.4 µM.

On to `FC(F)(F)c1cc(NC(=S)Nc2ccc(Cl)c(Cl)c2)ccc1Cl` [Compound 1799], for which, in data set [1], the fold induction at 3 µM amounted to 4 and the fold induction at 10 µM was determined as 4. In data set [2], the IC50 worked out at 0.7 µM.

With `FC(F)(F)c1cc(NC(=S)Nc2ccc(Cl)cc2)cc(C(F)(F)F)c1` [Compound 1800], in data set [1], the fold induction at 3 µM was 3 and the fold induction at 10 µM stood at 4. The IC50 in data set [2] was 0.5 µM.

`FC(F)(F)c1cc(NC(=S)Nc2ccc(Cl)cc2)ccc1Cl` [Compound 1801]: in data set [1], the fold induction at 3 µM was found to be 3 and the fold induction at 10 µM was 3. Besides, the IC50 in data set [2] amounted to 0.8 µM.

In the case of `Cc1ccc(NC(=S)Nc2ccc(Cl)c(C(F)(F)F)c2)cc1O` [Compound 1802], in data set [1], the fold induction at 3 µM was found to be 1.5 and the fold induction at 10 µM was 7. Further, the IC50 in data set [2] was found to be 3.5 µM.

As to `Cc1ccc(NC(=S)Nc2cc(C(F)(F)F)cc(C(F)(F)F)c2)cc1O` [Compound 1803], in data set [1], the fold induction at 3 µM worked out at 1 and the fold induction at 10 µM came to 12. Also, the IC50 in data set [2] is 1.7 µM.

On to `FC(F)(F)c1cc(NC(=S)Nc2cc(C(F)(F)F)cc(C(F)(F)F)c2)cc(C(F)(F)F)c1` [Compound 1804], for which, in data set [1], the fold induction at 3 µM was 6 and the fold induction at 10 µM came to 25. Besides, the IC50 in data set [2] amounted to 0.1 µM.

Turning to `S=C(Nc1ccc(Cl)cc1)Nc1ccc(Cl)c(Cl)c1` [Compound 1805], in data set [1], the fold induction at 3 µM was 1.4 and the fold induction at 10 µM was found to be 8. Further, the IC50 in data set [2] was 1.6 µM.

Consider `S=C(Nc1ccc(Cl)c(Cl)c1)Nc1ccc(Cl)c(Cl)c1` [Compound 1806], for which, in data set [1], the fold induction at 3 µM was determined as 2.5 and the fold induction at 10 µM is 3.5. Moreover, the IC50 in data set [2] was 0.9 µM.

Regarding `CNC(=O)c1cc(Oc2ccc(NC(=S)Nc3ccc(Cl)c(C(F)(F)F)c3)cc2)ccn1` [Compound 1814], in data set [1], the fold induction at 3 µM was 1.5 and the fold induction at 10 µM came out at 2. In addition, the IC50 in data set [2] was found to be 2 µM.

`COc1ccc(NC(=S)Nc2ccccc2)cc1` [Compound 1815]: in data set [1], the fold induction at 3 µM was determined as 1 and the fold induction at 10 µM was 1. The IC50 in data set [2] is above 20 µM.

In the case of `COc1ccc(NC(=S)Nc2cc(C(F)(F)F)cc(C(F)(F)F)c2)cc1` [Compound 1816], in data set [1], the fold induction at 3 µM amounted to 1 and the fold induction at 10 µM turned out to be 2.5. Also, the IC50 in data set [2] was 1.5 µM.

In the case of `FC(F)(F)c1cc(NC(=S)Nc2ccccc2)cc(C(F)(F)F)c1` [Compound 1819], in data set [1], the fold induction at 3 µM turned out to be 1 and the fold induction at 10 µM came out at 6. The IC50 in data set [2] was 1.5 µM.

`CC(C)c1ccccc1NC(=S)Nc1cc(C(F)(F)F)cc(C(F)(F)F)c1` [Compound 1820]: in data set [1], the fold induction at 3 µM amounted to 1.5 and the fold induction at 10 µM is 11. Further, the IC50 in data set [2] was found to be 1.5 µM.

As to `CC(C)(C)c1ccccc1NC(=S)Nc1cc(C(F)(F)F)cc(C(F)(F)F)c1` [Compound 1821], in data set [1], the fold induction at 3 µM turned out to be 1 and the fold induction at 10 µM amounted to 1. Besides, the IC50 in data set [2] is 4 µM.

Take `FC(F)(F)c1cc(Nc2nncn2-c2cc(C(F)(F)F)cc(C(F)(F)F)c2)cc(C(F)(F)F)c1` [Compound 1836]: in data set [1], the fold induction at 3 µM was 1 and the fold induction at 10 µM was determined as 1. Moreover, the IC50 in data set [2] was 2 µM.

In the case of `Clc1ccc(Nc2nncn2-c2ccc(Cl)c(Cl)c2)cc1Cl` [Compound 1842], in data set [1], the fold induction at 3 µM turned out to be 1 and the fold induction at 10 µM is 1.

`N#Cc1ncc(Cl)cc1[N+](=O)[O-]` [Compound 141226]: in data set [1], the “Activity 2.5 uM” value is reported as 1.02 and the “Activity 10 uM” value worked out at 3.8.

Take `CC(C)(C)C[CH2][Hg][Cl]` [Compound 146249]: in data set [1], the “Activity 2.5 uM” value was determined as 2.57 and the “Activity 10 uM” value stood at 3.25.

Take `C[C@H](N)C(=O)NCC(=O)N[C@H]1CSSC[C@@H](C(=O)O)NC(=O)[C@H](CO)NC(=O)[C@H]([C@@H](C)O)NC(=O)[C@H](Cc2ccccc2)NC(=O)[C@H]([C@@H](C)O)NC(=O)[C@H](CCCCN)NC(=O)[C@H](Cc2c[nH]c3ccccc23)NC(=O)[C@H](Cc2ccccc2)NC(=O)[C@H](Cc2ccccc2)NC(=O)[C@H](CC(N)=O)NC(=O)[C@H](CCCCN)NC1=O` [Somatostatin]: the “Relative F-luc/R-luc Ratio (+/− SEM)” value in data set [1] (agent at 20 μM) is 0.9 + 0.2.

For `COc1cc([C@@H]2c3cc4c(cc3[C@@H](O[C@@H]3O[C@@H]5CO[C@@H](C)O[C@H]5[C@H](O)[C@H]3O)[C@H]3COC(=O)[C@H]23)OCO4)cc(OC)c1O` [etoposite, reference compound], the “Effect on firefly/renilla luciferase ratio” value in data set [1] is recorded as “no effect”.

In the case of `CO[C@@]12[C@H](COC(N)=O)C3=C(C(=O)C(C)=C(N)C3=O)N1C[C@@H]1N[C@@H]12` [mitomycin, reference compound], the “Effect on firefly/renilla luciferase ratio” value in data set [1] is “no effect”.

On to `C/C=C(/C)C(=O)O[C@H]1C(C)=C2[C@H]([C@@H]1OC(=O)CCCCCCC)[C@@](C)(OC(C)=O)C[C@H](OC(=O)CCC)[C@@]1(O)[C@H]2OC(=O)[C@@]1(C)O` [thapsigargin, reference compound], for which the “Effect on firefly/renilla luciferase ratio” value in data set [1] is on record as “increase in the ratio”.

For the compound tunicamycin [reference compound], the “Effect on firefly/renilla luciferase ratio” value in data set [1] was “increase in the ratio”.

(Values after patent US9421211B2, “N,N′-diarylurea compounds and N,N′-diarylthiourea compounds as inhibitors of translation initiation” (President and Fellows of Harvard College, priority 2009, dated 2016).)
